Measured values reported in PubChem BioAssay (NCI).
“And” between values parts separate entries of the source, which are not always exact repeats. Equal entries are not always repeated.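 These data come from cells grown in 96-well plates and exposed to compound for 48 hours at five concentrations. GI50 marks 50% less growth. Definition used: TGI = concentration required for complete inhibition of growth.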

How the values were obtained:
Experiment in all cases: NCI anticancer screen, dose series, 48 h
[1] = tested on: HOP-92 NSCLC
[2] = tested on: IGROV1 ovarian
[3] = tested on: HOP-62 NSCLC
[4] = tested on: DU-145 prostate
[5] = tested on: HCT-116 colon
[6] = tested on: SW-620 colon
[7] = tested on: SNB-78 CNS
[8] = tested on: NCI-H522 lung
[9] = tested on: NCI-H23 lung
[10] = tested on: DLD-1 colon

Row | SMILES | TGI [1] [µM] | GI50 [2] [µM] | TGI [2] | GI50 [3] [µM] | TGI [3] | GI50 [4] [µM] | TGI [4] | GI50 [5] [µM] | TGI [5] | GI50 [6] [µM] | TGI [6] | TGI [7] [µM] | GI50 [8] [µM] | TGI [8] | GI50 [9] [µM] | TGI [9] | TGI [10] [µM]
1 | COc1cc(/C=C2\CCC/C(=C\c3ccc(O)c(OC)c3)C2=O)ccc1O | 30.7 | 1.85 | 8.94 µM and 4.53 µM | 1.79 | 8.32 µM and 3.95 µM | 1.72 | 13.5 µM and 5.95 µM | 1.45 | 5 µM and 2.75 µM | 1.84 | 9.59 µM and 3.51 µM | 8.03 | 1.12 | 3.23 µM and 2.66 µM | 1.84 | 24.8 µM and 4.63 µM | 3.38
2 | NS(=O)(=O)c1ccc(NC(=O)Cc2nc3ccccc3s2)cc1 | 29.8 | – | 29.9 µM | – | 50.9 µM | – | – | – | 31 µM | – | 31.7 µM | 41.6 | – | 33.2 µM | – | 29.5 µM | 29.5
3 | CSc1ccc2c(cc1=O)[C@@H](NC(=O)c1ccc(Cl)cc1)CCc1cc(O)c(O)c(O)c1-2 | > 100 | – | 50.8 µM | – | > 100 µM | – | – | – | 32.1 µM | – | 37.1 µM | > 100 | – | 52.1 µM | – | > 100 µM | 72.7
4 | CSc1nc2nn(Cc3ccccc3)cc2c(=O)[nH]1 | > 100 | – | > 100 µM | – | > 100 µM | – | – | – | > 100 µM | – | > 100 µM | > 100 | – | > 100 µM | – | > 100 µM | > 100
5 | Cn1c(=O)nc2n(-c3ccc(Cl)cc3)c3cc(Cl)ccc3nc-2c1=O | 18.5 | – | 3.74 µM | – | 33.2 µM | – | 29 µM | – | 10 µM | – | 4.22 µM | > 57.4 | – | 6.36 µM | – | 6.06 µM | 3.9
6 | O=C(N/C(=C\c1cccc([N+](=O)[O-])c1)c1nc2ccccc2[nH]1)c1ccccc1 | > 100 | – | > 100 µM | – | > 100 µM | – | – | – | > 100 µM | – | > 100 µM | > 100 | – | > 100 µM | – | > 100 µM | > 100
7 | Cn1c2c(c3ccccc31)CCN(CCCCN1CCN(c3ccccc3)CC1)C2=O | > 100 | – | > 100 µM | – | > 100 µM | – | > 100 µM | – | > 100 µM | – | > 56.2 µM | > 100 | – | > 100 µM | – | > 76.8 µM | > 100
8 | CC(C)(C)c1cc(CCCCCCCC2(CCCCCCCc3cc(C(C)(C)C)cc(C(C)(C)C)c3)OC(COCCOCCCCCC#N)C(COCCOCCCCCC#N)O2)cc(C(C)(C)C)c1 (stereo unspecified) | > 100 | – | > 100 µM | – | > 100 µM | – | – | – | > 100 µM | – | > 100 µM | > 100 | – | > 100 µM | – | > 100 µM | > 100
9 | O=C(/C=C/c1ccccc1O)c1ccc([N+](=O)[O-])cc1 | > 100 | – | 26.3 µM | – | 32.4 µM | – | – | – | 29 µM | – | 31.3 µM | 89.1 | – | 33.1 µM | – | 25.4 µM | 26.3
